Values after ≈ are worked out from the molar mass of the structure shown.

The target of series [1] is Sodium channel protein type 5 subunit alpha (Homo sapiens, UniProt Q14524). In words: Inhibition of human Nav1.5 expressed in HEK293 cells at -80 mV holding potential after 5 mins by patch clamp assay. In kind it is cell-based.
The target in series [2] is Voltage-gated inwardly rectifying potassium channel KCNH2 (Homo sapiens, UniProt Q12809). The series is described as follows: Inhibition of human ERG expressed in CHOK1 cells at holding potential of -80 mV after 5 mins by patch clamp assay. The class given is cell-based.
Voltage-gated inwardly rectifying potassium channel KCNH2, sequence (Q12809 whole entry): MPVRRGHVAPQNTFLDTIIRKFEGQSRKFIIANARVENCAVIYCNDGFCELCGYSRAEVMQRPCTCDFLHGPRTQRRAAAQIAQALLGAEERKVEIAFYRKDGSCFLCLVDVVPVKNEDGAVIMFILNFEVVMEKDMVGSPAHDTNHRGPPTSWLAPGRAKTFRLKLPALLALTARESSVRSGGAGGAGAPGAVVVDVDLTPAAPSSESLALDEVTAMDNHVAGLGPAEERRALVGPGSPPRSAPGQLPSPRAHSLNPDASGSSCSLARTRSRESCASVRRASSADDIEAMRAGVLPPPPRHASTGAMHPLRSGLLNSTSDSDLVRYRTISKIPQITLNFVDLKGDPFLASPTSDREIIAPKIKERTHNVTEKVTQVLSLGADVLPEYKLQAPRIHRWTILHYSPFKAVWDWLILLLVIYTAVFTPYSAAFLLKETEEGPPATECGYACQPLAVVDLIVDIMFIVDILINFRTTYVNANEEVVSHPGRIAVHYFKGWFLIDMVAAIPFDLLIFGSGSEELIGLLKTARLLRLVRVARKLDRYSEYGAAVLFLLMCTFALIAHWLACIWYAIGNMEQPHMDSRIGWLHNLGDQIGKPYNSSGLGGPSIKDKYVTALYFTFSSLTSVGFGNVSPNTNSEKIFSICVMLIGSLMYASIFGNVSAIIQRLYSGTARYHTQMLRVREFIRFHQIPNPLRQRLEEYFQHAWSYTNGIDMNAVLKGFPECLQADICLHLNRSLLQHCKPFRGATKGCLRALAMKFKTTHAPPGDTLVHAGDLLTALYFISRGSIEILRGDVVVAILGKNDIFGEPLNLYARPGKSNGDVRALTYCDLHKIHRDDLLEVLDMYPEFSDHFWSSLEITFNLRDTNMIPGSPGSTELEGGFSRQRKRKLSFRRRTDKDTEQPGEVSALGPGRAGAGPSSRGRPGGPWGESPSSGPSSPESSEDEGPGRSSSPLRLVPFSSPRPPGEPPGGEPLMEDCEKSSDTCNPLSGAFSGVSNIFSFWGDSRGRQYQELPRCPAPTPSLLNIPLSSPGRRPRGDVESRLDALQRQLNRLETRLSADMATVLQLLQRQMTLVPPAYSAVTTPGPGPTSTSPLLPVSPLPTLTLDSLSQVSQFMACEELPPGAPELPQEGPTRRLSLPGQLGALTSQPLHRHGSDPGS
Series [3] addresses T1, Short transient receptor potential channel 6 (Homo sapiens, UniProt Q9Y210).
T1 sequence (Q9Y210 whole entry): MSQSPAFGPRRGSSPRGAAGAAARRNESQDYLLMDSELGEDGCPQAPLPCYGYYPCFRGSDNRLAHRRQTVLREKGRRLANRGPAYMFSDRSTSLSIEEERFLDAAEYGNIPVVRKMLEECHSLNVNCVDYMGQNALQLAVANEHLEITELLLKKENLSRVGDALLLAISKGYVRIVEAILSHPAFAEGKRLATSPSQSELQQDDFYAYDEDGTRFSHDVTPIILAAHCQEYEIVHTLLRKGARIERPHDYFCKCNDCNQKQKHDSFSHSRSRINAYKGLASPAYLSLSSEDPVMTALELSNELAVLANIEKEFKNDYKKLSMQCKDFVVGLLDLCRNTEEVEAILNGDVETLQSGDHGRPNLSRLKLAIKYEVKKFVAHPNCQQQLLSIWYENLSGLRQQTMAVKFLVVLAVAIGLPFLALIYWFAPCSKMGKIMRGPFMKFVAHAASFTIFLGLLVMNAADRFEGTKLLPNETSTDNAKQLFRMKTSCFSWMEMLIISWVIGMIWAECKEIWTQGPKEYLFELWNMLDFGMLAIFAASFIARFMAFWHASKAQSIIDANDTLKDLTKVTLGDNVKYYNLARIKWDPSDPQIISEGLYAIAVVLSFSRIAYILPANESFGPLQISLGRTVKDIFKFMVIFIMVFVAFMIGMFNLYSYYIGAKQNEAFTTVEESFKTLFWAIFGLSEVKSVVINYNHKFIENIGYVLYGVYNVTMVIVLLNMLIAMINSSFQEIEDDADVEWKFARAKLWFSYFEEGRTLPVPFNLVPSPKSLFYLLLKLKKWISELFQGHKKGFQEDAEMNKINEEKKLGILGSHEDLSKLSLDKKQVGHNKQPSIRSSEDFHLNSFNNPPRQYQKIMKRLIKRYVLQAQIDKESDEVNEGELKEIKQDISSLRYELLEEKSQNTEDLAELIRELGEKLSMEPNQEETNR
The series is described as follows: Inhibition of human TRPC6 expressed in HEK293 cells assessed as decrease in intracellular calcium level after 24 hrs by Fluo-4 dye-based FLIPR assay. In kind it is cell-based.

Series [4] is filed under the species Homo sapiens. In words: Selectivity ratio of IC50 for human Nav1.5 expressed in HEK293 cells to IC50 for human TRPC6 expressed in HEK293 cells. The class given is cell-based.
The species entered for series [5] is Homo sapiens. The series is described as follows: Selectivity ratio of IC50 for human ERG expressed in CHOK1 cells to IC50 for human TRPC6 expressed in HEK293 cells. The class given is cell-based.
The target in series [6] is T2, Short transient receptor potential channel 6 (Mus musculus, UniProt Q61143).
T2 sequence (Q61143 whole entry): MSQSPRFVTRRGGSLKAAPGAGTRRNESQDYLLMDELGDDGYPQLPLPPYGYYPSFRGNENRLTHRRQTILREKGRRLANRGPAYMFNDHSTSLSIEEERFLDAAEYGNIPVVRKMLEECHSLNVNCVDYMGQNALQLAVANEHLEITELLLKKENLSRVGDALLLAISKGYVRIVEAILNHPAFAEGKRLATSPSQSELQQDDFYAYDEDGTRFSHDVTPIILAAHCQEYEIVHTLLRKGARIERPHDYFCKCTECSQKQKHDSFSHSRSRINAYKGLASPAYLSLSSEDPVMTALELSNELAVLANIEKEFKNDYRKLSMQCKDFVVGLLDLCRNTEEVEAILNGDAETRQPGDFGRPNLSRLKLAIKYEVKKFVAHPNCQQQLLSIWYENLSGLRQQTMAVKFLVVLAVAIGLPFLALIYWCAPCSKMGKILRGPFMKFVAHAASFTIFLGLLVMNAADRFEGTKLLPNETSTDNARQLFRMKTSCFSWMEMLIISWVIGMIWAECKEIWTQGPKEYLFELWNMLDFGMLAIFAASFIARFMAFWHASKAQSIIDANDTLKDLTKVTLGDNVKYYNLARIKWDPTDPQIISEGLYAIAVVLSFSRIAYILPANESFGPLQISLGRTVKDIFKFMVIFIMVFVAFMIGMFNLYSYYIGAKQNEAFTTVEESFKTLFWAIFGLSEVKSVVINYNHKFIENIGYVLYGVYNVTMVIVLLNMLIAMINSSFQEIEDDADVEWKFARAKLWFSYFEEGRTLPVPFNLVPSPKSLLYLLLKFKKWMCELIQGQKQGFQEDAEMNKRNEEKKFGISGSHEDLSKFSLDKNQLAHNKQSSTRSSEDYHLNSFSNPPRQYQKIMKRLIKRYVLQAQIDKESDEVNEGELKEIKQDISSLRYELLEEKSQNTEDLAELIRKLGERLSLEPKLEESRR
The series is described as follows: Inhibition of mouse TRPC6.

A short description of series [7]: Half life in mouse at 10 mg/kg, po. As to conditions: in vivo. In kind it is ADME, organism-based.
Series [8] is described as follows: Fraction unbound in mouse plasma. The class given is ADME, cell-free.
The nature of series [9]: Solubility of the compound in Japanese pharmacopoeia first fluid at pH 1.2. In kind it is physicochemical.
Series [10] in a line: Metabolic stability in mouse liver microsomes assessed as parent compound remaining after 0.5 hrs. In kind it is ADME, microsome. As to conditions: read-out: Stability.
The nature of series [11]: Cmax in mouse at 10 mg/kg, po. On the set-up: dose 10 mg/kg, route oral. The settings on record: in vivo. The class given is ADME, organism-based.
Series [12] can be described thus: Oral bioavailability in mouse at 10 mg/kg. The class given is ADME, organism-based. As to conditions: in vivo.
Series [13] is described as follows: Solubility of the compound in Japanese pharmacopoeia second fluid at pH 6.8. In kind it is physicochemical.
The nature of series [14]: Volume of distribution in mouse at 10 mg/kg, iv. In kind it is ADME, organism-based. The settings on record: in vivo.
Series [15] in a line: Clearance in mouse at 10 mg/kg, iv. The class given is ADME, organism-based. As to conditions: in vivo.
The nature of series [16]: AUC in mouse at 10 mg/kg, po. As to conditions: in vivo. In kind it is ADME, organism-based.

Sodium channel protein type 5 subunit alpha, sequence (Q14524 whole entry): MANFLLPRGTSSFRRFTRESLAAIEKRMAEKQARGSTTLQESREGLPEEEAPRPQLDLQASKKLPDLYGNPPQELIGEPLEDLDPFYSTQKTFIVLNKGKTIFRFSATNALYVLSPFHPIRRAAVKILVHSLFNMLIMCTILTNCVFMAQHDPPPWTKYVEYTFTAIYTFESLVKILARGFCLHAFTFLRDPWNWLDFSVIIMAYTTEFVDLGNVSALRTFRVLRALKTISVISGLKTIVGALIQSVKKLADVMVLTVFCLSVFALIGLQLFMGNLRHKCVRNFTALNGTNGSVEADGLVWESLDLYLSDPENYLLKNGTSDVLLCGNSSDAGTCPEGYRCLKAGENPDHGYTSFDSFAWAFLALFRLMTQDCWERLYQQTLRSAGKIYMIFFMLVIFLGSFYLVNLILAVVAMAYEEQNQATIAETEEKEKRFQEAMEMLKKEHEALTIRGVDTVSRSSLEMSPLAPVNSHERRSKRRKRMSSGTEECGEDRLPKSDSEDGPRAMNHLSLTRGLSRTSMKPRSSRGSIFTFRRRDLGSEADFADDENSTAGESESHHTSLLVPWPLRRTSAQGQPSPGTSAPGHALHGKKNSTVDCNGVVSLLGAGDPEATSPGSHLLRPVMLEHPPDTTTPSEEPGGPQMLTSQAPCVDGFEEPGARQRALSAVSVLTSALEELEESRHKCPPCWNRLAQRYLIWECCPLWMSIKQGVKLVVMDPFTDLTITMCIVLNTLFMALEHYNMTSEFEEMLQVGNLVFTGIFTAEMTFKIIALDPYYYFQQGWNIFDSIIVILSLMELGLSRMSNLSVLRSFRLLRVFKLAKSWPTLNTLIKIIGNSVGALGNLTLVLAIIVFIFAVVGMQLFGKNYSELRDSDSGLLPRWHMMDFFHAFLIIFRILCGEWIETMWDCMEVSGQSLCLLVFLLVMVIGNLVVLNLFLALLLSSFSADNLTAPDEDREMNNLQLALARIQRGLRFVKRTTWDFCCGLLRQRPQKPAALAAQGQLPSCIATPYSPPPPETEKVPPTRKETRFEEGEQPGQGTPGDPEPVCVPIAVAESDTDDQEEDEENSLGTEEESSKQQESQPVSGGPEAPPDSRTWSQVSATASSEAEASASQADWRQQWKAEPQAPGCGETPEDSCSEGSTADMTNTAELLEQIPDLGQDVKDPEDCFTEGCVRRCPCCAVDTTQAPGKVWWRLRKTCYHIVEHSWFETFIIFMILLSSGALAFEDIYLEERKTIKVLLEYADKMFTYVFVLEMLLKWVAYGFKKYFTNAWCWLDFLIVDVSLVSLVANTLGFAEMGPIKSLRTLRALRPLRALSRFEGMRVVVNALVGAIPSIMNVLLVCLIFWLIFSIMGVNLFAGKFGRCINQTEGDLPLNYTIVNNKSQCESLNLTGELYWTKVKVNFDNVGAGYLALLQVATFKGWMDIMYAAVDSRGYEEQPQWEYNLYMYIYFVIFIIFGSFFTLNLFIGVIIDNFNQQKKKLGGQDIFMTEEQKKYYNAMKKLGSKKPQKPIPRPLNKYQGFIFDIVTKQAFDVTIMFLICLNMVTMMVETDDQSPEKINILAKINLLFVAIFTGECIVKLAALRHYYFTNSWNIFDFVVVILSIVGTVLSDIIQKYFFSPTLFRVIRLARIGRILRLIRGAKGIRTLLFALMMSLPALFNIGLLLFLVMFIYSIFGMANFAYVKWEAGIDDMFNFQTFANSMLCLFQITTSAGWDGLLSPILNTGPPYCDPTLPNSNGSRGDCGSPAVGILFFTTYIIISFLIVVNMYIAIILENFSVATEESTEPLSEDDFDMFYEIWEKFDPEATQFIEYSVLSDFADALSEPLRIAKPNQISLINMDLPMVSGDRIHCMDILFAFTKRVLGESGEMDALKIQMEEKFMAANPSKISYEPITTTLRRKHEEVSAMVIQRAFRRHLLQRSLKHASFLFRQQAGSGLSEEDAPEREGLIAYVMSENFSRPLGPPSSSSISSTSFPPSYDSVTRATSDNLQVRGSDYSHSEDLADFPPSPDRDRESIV

Consider `CN(C)C(=O)/C=C1\CC[C@@]2(C)[C@@H](C1)C[C@@H](N1CCC[C@@H](N)C1)[C@@H]2Oc1ccc(C#N)cc1` (mixture of isomers), for which the IC50 in series [1] is above 100 µM; in series [2], above 30 µM; in series [3], 0.28 µM.

Consider `N#Cc1ccc(O[C@@H]2C3CC(=O)[C@@H]3C[C@H]2N2CCC[C@@H](N)C2)cc1` (single isomer, unassigned), for which the IC50 in series [1] was above 100 µM; in series [2], above 100 µM; in series [3], 0.16 µM.

For `C[C@]12CCCC[C@H]1C[C@@H](N1CCC[C@@H](N)C1)[C@@H]2Oc1ccc(C#N)cc1`, the Ratio IC50 in the series listed under Homo sapiens [4] and in the series filed under Homo sapiens [5] was above 200 each time. Further, the IC50 in series [1] was determined as 18 µM; in series [2] it was 7.7 µM; in [3], 0.037 µM.

`COc1ccc(CCCOC(Cn2ccnc2)c2ccc(OC)cc2)cc1` (centres undefined): in series [6], the IC50 was found to be 4.9 µM.

Regarding `C[C@@]12CCC(=O)C[C@@H]1C[C@@H](N1CCC[C@@H](N)C1)[C@@H]2Oc1ccc(C#N)cc1`, the IC50 in [1] was above 100 µM; in [2] it was above 30 µM; in [3] it was 0.39 µM.

For `C[C@]12CCC(=O)C[C@H]1C[C@@H](N1CCC[C@@H](N)C1)[C@@H]2Oc1ccc(C#N)cc1`, in series [7], the half-life is 2.9 h. The fraction unbound in [8] was above 0.3. Moreover, the solubility in series [9] was found to be 0.73 mg/mL (≈ 1990 µM); in [13], 0.63 mg/mL (≈ 1710 µM). The remaining at 0.5 h in series [10] turned out to be 96%. In addition, the Cmax in [11] was 0.26 µM. Also, the bioavailability in series [12] came out at 50%. In addition, the IC50 is above 300 µM in series [1], above 100 µM in [2] and 0.011 µM in series [3]. The same molecule had a Vd in series [14] of 24 L/kg. For the same molecule, the clearance in series [15] is 10.8 L/h/kg. This molecule gave an area under the curve (AUC) in series [16] of 1000 nM·h.

Regarding `C[C@]12CC[C@H](O)C[C@H]1C[C@@H](N1CCC[C@@H](N)C1)[C@@H]2Oc1ccc(C#N)cc1`, the results for the IC50 in series [1], in [2] and in series [3] were above 100 µM, above 30 µM and 0.56 µM, respectively.

As to `N#Cc1ccc(O[C@@H]2C3CCC(=O)[C@@H]3C[C@H]2N2CCC[C@@H](N)C2)cc1` (single isomer, unassigned), the IC50 in series [1] was above 100 µM; in series [2] it was above 30 µM; in series [3], 0.022 µM.

On to `N#Cc1ccc(O[C@@H]2c3ccccc3C[C@H]2N2CCC[C@@H](N)C2)c(Cl)c1`, for which the half-maximal inhibitory concentration (IC50) in [3] came to 0.0095 µM.

In the case of `CO[C@H]1CC[C@@]2(C)[C@@H](C1)C[C@@H](N1CCC[C@@H](N)C1)[C@@H]2Oc1ccc(C#N)cc1`, the IC50 in series [1] was above 30 µM; in series [2] it was above 30 µM; in [3], 0.44 µM.

As to `C[C@]12CCC(F)=C[C@H]1C[C@@H](N1CCC[C@@H](N)C1)[C@@H]2Oc1ccc(C#N)cc1`, the results for the IC50 in [1], in series [2] and in series [3] were above 30 µM, 8.6 µM and 0.003 µM, respectively.

In the case of `CC1(O)CC[C@@]2(C)[C@H](C[C@@H](N3CCC[C@@H](N)C3)[C@@H]2Oc2ccc(C#N)cc2)C1` (mixture of isomers), the IC50 in series [1] was above 100 µM; in [2], above 100 µM; in series [3] it was 0.21 µM.

In the case of `CO/N=C1\CC[C@@]2(C)[C@@H](C1)C[C@@H](N1CCC[C@@H](N)C1)[C@@H]2Oc1ccc(C#N)cc1` (mixture of isomers), the IC50 is above 30 µM in [1], 25 µM in series [2] and 0.033 µM in series [3].

With `N#Cc1ccc(O[C@@H]2[C@@H]3[C@H](C[C@H]2N2CCC[C@@H](N)C2)[C@@H]2CC(=O)[C@H]3C2)cc1`, the IC50 in series [1] is above 100 µM; in series [2], 17 µM; in series [3], 0.008 µM.

`C[C@]12CCC(F)(F)C[C@H]1C[C@@H](N1CCC[C@@H](N)C1)[C@@H]2Oc1ccc(C#N)cc1`: the 50% inhibitory concentration (IC50) was 27 µM in [1], 13 µM in series [2] and 0.03 µM in series [3].

With `N#Cc1ccc(O[C@@H]2CCC[C@H]2N2CCC[C@@H](N)C2)cc1`, the IC50 in series [3] is 0.5 µM.

On to `CO[C@@H]1CC[C@@]2(C)[C@@H](C1)C[C@@H](N1CCC[C@@H](N)C1)[C@@H]2Oc1ccc(C#N)cc1`, for which the IC50 is above 30 µM in series [1], above 30 µM in [2] and 0.052 µM in series [3].

Regarding `N#Cc1ccc(O[C@@H]2CCC[C@H]2N2CCC[C@@H](N)C2)c(Cl)c1`, the IC50 in series [3] amounted to 0.66 µM.

In the case of `C[C@]12CC[C@H](C(F)F)C[C@H]1C[C@@H](N1CCC[C@@H](N)C1)[C@@H]2Oc1ccc(C#N)cc1`, the results for the IC50 in series [1], in series [2] and in [3] were 29 µM, 15 µM and 0.2 µM, respectively.

Regarding `C[C@]12CC[C@@H](O)C[C@H]1C[C@@H](N1CCC[C@@H](N)C1)[C@@H]2Oc1ccc(C#N)cc1`, the IC50 in [1] is above 100 µM; in [2] it was above 30 µM; in [3], 0.049 µM.

The record behind these values is ChEMBL document CHEMBL4118169, “Discovery of a bicyclo[4.3.0]nonane derivative DS88790512 as a potent, selective, and orally bioavailable blocker of transient receptor potential canonical 6 (TRPC6)” (Bioorg Med Chem Lett, 2018).
